In one series the test system is HIV-1. To be noted: in vitro; more potent than CsA; cited from earlier work.
The target in series [1] is T1, OATP1B3 (Homo sapiens, UniProt Q9NPD5).
T1 sequence (Q9NPD5 1-702): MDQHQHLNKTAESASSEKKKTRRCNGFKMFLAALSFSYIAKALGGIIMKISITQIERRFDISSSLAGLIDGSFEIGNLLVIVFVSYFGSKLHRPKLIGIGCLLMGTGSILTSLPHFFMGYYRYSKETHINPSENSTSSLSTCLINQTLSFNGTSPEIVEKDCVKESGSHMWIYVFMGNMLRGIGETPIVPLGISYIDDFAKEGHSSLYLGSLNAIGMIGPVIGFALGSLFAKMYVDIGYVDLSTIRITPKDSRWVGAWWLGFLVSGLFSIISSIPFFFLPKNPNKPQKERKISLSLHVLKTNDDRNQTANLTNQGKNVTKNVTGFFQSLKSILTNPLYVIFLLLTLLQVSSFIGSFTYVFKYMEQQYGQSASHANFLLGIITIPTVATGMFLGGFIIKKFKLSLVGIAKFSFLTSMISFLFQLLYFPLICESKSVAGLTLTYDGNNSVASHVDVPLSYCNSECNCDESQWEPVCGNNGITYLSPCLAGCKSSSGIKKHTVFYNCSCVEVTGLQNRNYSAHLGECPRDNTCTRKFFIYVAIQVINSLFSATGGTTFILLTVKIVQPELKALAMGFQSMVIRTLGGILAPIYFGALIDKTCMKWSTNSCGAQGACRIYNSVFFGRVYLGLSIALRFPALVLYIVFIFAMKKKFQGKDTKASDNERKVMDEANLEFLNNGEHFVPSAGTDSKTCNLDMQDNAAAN
From the text: (§1) The effect of Alisporivir on the OATP1B1, 1B3, and MRP2 substrate valsartan was also investigated.

For series [2] the following is noted: human, in vivo, po.
The target of another series is T2, UGT2B7 (Homo sapiens, UniProt P16662).
T2 sequence (P16662 24-529): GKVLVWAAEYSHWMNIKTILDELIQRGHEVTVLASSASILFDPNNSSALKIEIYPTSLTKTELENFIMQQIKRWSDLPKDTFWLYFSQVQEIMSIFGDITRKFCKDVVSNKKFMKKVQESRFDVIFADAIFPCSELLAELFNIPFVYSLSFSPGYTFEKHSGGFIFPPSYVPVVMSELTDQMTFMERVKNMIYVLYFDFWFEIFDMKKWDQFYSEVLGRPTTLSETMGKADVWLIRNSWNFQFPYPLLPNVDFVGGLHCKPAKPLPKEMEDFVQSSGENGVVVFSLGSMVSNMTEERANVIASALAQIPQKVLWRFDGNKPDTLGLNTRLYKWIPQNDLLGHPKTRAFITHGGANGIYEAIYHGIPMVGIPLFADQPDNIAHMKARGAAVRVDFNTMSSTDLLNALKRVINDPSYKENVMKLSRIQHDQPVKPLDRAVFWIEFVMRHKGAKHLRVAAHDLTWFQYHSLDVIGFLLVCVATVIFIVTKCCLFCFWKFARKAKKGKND

The target of series [3] is T1, OATP1B3. This is another data set of the same source.
From the text: as §1
The next series concerns the target T3, UGT1A1 (Homo sapiens, UniProt P22309).
T3 sequence (P22309 26-533): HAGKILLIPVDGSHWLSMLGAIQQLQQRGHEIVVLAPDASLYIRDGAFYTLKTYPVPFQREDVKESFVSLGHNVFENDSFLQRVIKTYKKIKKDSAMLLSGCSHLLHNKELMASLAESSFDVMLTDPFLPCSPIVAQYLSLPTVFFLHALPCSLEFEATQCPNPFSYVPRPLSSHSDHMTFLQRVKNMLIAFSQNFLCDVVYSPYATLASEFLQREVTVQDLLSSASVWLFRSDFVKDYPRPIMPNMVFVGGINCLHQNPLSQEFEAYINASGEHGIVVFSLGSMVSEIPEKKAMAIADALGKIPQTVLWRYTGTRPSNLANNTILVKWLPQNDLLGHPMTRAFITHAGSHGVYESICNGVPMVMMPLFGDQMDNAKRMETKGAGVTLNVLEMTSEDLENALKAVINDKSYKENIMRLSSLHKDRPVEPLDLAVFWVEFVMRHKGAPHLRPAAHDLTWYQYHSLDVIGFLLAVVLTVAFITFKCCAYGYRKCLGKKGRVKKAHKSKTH

A further series concerns the target T4, NTCP (Homo sapiens, UniProt Q14973).
T4 sequence (Q14973 1-349): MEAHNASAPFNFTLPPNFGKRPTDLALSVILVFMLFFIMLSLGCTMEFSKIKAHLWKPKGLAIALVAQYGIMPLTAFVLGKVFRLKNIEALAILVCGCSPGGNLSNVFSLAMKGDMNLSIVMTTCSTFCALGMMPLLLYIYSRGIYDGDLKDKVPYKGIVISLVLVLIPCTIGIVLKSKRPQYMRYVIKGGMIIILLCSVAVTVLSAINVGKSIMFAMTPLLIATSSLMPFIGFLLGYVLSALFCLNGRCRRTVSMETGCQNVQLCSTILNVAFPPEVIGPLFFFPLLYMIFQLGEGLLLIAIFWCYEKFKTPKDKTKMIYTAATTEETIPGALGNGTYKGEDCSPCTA

The conditions of series [4]: human, in vivo, po. This is another data set of the same source.
The target in the next series is BSEP (Homo sapiens, UniProt O95342).
Sequence of BSEP (O95342 whole entry): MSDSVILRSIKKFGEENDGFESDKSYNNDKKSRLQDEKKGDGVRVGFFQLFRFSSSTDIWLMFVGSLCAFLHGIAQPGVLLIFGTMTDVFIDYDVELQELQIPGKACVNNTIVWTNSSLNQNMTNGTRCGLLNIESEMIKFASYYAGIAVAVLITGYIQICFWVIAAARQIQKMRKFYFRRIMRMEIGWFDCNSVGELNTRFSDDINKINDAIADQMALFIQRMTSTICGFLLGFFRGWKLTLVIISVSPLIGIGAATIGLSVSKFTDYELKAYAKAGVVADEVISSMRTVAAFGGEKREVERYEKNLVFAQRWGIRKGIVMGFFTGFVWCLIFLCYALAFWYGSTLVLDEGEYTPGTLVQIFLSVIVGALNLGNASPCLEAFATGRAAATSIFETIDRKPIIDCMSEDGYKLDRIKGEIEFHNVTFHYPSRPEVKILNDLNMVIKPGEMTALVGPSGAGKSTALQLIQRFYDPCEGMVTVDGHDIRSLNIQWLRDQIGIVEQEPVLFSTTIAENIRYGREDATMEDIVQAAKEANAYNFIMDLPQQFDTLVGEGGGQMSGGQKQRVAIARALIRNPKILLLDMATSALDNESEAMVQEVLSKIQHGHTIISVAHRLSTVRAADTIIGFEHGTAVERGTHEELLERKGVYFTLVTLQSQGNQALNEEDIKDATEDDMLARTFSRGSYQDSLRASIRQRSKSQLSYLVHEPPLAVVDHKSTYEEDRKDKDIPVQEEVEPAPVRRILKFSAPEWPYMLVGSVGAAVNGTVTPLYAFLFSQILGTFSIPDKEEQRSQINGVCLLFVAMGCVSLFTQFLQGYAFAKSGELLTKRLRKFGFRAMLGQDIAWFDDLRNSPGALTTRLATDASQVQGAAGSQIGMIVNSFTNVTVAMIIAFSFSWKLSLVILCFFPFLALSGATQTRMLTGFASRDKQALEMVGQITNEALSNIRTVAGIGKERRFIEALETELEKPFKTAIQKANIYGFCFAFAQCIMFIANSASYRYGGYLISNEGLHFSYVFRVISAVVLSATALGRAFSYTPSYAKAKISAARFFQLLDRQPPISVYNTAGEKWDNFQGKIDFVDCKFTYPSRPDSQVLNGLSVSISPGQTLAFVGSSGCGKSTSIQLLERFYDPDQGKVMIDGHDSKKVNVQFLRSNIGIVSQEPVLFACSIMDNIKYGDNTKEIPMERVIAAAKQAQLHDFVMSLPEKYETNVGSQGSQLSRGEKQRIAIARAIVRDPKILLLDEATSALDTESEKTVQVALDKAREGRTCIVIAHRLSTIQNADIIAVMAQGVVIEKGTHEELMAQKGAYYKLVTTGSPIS
Series [5] has as its target T5, MRP2 (Homo sapiens, UniProt Q92887).
From the text: as §1
Another series deals with CYP3A4 (Homo sapiens, UniProt P08684).
Sequence of CYP3A4 (P08684 whole entry): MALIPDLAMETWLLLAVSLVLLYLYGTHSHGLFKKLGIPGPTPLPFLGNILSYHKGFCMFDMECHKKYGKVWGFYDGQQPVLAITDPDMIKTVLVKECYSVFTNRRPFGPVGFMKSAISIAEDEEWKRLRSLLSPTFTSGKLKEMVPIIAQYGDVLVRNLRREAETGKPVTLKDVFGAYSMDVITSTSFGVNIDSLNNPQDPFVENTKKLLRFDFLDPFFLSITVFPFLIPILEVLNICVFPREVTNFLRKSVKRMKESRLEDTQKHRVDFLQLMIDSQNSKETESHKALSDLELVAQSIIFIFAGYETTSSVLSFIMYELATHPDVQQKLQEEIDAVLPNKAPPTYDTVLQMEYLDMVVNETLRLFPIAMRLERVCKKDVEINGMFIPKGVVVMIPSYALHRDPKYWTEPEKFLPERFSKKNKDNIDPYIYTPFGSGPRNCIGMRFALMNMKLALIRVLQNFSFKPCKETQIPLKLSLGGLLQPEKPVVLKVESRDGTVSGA
For series [6], the target named is T5, MRP2. To be noted: not told.
From the text: as §1
Series [7] has as its target T6, OATP1B1 (Homo sapiens, UniProt Q9Y6L6).
T6 sequence (Q9Y6L6 1-691): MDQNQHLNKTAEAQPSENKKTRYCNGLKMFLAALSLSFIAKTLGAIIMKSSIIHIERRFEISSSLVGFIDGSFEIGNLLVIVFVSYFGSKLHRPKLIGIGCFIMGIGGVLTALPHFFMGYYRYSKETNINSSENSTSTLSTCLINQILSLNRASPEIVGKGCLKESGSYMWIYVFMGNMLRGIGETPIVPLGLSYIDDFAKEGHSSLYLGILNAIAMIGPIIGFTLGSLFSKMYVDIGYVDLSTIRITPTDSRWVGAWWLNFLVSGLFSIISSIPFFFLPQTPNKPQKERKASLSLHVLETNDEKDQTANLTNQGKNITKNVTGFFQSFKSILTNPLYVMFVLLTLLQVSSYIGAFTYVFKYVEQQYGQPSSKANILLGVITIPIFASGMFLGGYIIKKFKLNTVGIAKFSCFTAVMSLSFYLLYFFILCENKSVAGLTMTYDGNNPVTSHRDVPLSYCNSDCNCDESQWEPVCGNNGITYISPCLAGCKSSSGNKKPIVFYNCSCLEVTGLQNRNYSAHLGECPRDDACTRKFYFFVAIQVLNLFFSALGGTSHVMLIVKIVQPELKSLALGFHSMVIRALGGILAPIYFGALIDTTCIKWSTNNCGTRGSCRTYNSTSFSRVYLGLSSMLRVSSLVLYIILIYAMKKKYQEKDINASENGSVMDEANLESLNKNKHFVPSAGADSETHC
From the text: as §1

Series [8] deals with T6, OATP1B1. This is another data set of the same source.
From the text: as §1
A further series addresses P-gp (Homo sapiens, UniProt P08183). To be noted: not told.

T5 sequence (Q92887 whole entry): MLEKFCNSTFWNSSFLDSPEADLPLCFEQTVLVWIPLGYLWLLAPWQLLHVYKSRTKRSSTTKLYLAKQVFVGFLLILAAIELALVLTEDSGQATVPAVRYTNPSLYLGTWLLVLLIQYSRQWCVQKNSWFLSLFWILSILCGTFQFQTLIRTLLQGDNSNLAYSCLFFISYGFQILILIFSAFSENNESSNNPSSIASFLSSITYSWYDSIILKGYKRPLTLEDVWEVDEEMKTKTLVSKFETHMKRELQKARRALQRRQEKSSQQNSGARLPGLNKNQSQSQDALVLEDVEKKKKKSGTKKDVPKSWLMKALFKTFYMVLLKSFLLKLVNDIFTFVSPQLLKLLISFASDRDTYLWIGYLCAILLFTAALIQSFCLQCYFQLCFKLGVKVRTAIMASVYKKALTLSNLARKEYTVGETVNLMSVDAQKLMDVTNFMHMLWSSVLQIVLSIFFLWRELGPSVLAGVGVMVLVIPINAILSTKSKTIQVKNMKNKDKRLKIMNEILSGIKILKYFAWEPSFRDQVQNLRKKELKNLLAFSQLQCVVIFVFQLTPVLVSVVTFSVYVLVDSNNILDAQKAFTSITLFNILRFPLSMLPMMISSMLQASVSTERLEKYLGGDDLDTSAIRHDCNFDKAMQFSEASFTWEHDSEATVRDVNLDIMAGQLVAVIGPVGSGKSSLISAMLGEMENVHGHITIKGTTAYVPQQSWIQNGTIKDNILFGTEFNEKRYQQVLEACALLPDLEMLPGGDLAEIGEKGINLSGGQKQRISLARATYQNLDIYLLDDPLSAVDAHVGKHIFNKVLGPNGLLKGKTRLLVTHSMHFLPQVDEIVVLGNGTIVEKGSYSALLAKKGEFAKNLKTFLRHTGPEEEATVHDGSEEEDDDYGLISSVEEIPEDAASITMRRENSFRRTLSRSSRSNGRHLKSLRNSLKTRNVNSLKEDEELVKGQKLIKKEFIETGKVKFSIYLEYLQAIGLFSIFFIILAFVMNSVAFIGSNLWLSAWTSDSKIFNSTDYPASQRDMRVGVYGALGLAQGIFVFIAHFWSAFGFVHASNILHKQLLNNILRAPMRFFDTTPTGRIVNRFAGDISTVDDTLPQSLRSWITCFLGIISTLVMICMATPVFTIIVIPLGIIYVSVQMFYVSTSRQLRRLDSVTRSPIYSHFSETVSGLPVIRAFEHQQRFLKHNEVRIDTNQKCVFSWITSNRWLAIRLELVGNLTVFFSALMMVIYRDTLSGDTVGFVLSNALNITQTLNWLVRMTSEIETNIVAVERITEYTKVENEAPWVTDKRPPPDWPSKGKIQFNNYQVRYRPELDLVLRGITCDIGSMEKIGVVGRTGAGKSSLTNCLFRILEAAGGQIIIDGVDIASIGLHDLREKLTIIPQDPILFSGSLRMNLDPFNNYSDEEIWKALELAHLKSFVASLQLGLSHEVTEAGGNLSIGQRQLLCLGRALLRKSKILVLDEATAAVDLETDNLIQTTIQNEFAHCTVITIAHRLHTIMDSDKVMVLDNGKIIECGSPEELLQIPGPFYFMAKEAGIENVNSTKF
Sequence of P-gp (P08183 whole entry): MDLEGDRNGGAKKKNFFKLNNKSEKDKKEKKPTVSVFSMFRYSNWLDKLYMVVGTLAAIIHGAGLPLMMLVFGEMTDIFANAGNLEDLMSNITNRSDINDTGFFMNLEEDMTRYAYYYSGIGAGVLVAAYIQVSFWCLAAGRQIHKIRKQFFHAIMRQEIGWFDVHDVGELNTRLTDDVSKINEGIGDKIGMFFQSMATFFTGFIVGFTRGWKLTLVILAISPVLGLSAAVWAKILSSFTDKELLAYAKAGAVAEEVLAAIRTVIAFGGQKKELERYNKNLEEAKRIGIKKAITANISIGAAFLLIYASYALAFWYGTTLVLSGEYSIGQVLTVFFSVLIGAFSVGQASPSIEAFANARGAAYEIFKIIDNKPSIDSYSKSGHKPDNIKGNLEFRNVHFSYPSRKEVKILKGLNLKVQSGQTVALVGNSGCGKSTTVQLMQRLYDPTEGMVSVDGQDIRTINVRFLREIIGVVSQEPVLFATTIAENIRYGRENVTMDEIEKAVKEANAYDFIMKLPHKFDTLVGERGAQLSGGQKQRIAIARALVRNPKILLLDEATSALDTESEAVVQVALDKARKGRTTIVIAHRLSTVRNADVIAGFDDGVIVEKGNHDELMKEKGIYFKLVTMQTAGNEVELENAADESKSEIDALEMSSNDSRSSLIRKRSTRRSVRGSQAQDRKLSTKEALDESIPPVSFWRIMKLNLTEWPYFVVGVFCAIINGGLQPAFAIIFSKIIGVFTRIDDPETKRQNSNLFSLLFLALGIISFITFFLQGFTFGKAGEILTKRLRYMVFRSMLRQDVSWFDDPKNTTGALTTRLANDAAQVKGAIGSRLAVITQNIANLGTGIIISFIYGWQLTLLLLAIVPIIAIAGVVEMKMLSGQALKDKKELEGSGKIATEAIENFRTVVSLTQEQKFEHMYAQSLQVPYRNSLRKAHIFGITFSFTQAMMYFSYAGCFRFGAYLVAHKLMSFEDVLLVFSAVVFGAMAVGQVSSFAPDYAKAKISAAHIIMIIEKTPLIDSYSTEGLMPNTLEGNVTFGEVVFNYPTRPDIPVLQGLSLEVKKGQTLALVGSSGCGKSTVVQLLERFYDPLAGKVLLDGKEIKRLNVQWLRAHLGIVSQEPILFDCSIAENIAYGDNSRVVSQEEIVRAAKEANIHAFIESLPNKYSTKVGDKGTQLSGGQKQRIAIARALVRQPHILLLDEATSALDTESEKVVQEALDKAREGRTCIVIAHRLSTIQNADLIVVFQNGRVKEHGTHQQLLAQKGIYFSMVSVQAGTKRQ
From the text for UGT1A1: as §1

For `C/C=C/C[C@@H](C)[C@@H](O)[C@H]1C(=O)N[C@@H](CC)C(=O)N(C)[C@H](C)C(=O)N(CC)[C@@H](C(C)C)C(=O)N[C@@H](C(C)C)C(=O)N(C)[C@@H](CC(C)C)C(=O)N[C@@H](C)C(=O)N[C@H](C)C(=O)N(C)[C@@H](CC(C)C)C(=O)N(C)[C@@H](CC(C)C)C(=O)N(C)[C@@H](C(C)C)C(=O)N1C` [alisporivir], the “anti-HIV-1 potency relative to CsA” value in the series on HIV-1 is “approximately 10 fold”. Moreover, at OATP1B3 [1], the “inhibition of OATP1B3” value is “inhibitor”. In addition, the “T1/2 when administered with telaprevir” value in [2] is given as “shorter”. Also, the “inhibition of UGT2B7” value on UGT2B7 is given as “does not inhibit”. In addition, the IC50 against OATP1B3 [3] and on OATP1B1 [8] was 700 nM in each case. Besides, the “inhibition of UGT1A1” value against UGT1A1 was “does not inhibit”. Besides, at NTCP, the “inhibition of NTCP” value is listed as “inhibitor”. Besides, in series [4], the “T1/2 when administered with boceprevir” value is reported as “shorter”. Further, the “inhibition of BSEP” value at BSEP is recorded as “inhibitor”. Further, the Ki on MRP2 [5] stood at 5900 nM. Further, the “inhibition of CYP3A4” value on CYP3A4 is “time-dependent inhibitor of CYP3A4”. Moreover, the “inhibition of MRP2” value against MRP2 [6] is listed as “inhibitor”. Besides, in the series with CYP isozymes, the “inducing effects on CYP isozymes” value was “no inducing effects”. Also, the “inhibition of OATP1B1” value against OATP1B1 [7] is on record as “inhibitor”. The “inhibition of P-gp” value against P-gp is “inhibitor”.

These data come from US20150133369A1, “PHARMACOKINETIC MODULATION WITH ALISPORIVIR” (priority 2012, published 2015).
